Experimental data published in patent US10770169B2, “Method of providing a treatment to a subject based on a dynamic pathway map” (THE REGENTS OF THE UNIVERSITY OF CALIFORNIA, priority 2010, dated 2020).

Test system: panel of 55 breast cancer cell lines
Assay: Cell growth inhibition assay (Cell Titer Glo, 72 h, 9 doses; GI50, TGI, LC50)
Format: cell-based, human
Conditions: for GI50: value is the negative log10 of mol/L
[1] = cell line 600MPE, censored GI50 values
[2] = cell line AU565, censored GI50 values
[3] = cell line BT474, censored GI50 values
[4] = cell line BT549, censored GI50 values
[5] = cell line CAMA1, censored GI50 values
[6] = cell line HCC38, censored GI50 values
[7] = cell line HCC70, censored GI50 values
[8] = cell line HCC202, censored GI50 values
[9] = cell line HCC1143, censored GI50 values
[10] = cell line HCC1187, censored GI50 values
[11] = cell line HCC1395, censored GI50 values
[12] = cell line HCC1419, censored GI50 values
[13] = cell line HCC1428, censored GI50 values
[14] = cell line HCC1500, censored GI50 values
[15] = cell line HCC1806, censored GI50 values
[16] = cell line HCC1937, censored GI50 values
[17] = cell line HCC1954, censored GI50 values
[18] = cell line HCC2185, censored GI50 values
[19] = cell line HCC3153, censored GI50 values
[20] = cell line LY2, censored GI50 values
[21] = cell line MCF7, censored GI50 values
[22] = cell line MDAMB134VI, censored GI50 values
[23] = cell line MDAMB175VII, censored GI50 values
[24] = cell line MDAMB231, censored GI50 values
[25] = cell line MDAMB361, censored GI50 values
[26] = cell line MDAMB436, censored GI50 values
[27] = cell line MDAMB453, censored GI50 values
[28] = cell line MDAMB468, censored GI50 values
[29] = cell line SKBR3, censored GI50 values
[30] = cell line SUM52PE, censored GI50 values
[31] = cell line SUM149PT, censored GI50 values
[32] = cell line SUM159PT, censored GI50 values
[33] = cell line SUM185PE, censored GI50 values
[34] = cell line SUM1315MO2, censored GI50 values
[35] = cell line T47D, censored GI50 values
[36] = cell line UACC812, censored GI50 values
[37] = cell line UACC893, censored GI50 values
[38] = cell line ZR75B, censored GI50 values
[39] = cell line ZR751, censored GI50 values
[40] = cell line BT20, censored GI50 values
[41] = cell line BT483, censored GI50 values
[42] = cell line MDAMB157, censored GI50 values

Compound: O=C1NC(=O)/C(=C/c2ccc3nccc(-c4ccncc4)c3c2)S1 [GSK1059615B]
- GI50 [1]: 6.31
- GI50 (cell line 600MPE): 6.31
- GI50 [2]: 6.32
- GI50 (cell line AU565): 6.32
- GI50 [3]: 6.80
- GI50 [4]: 5.73
- GI50 [5]: 5.77
- GI50 [6]: 6.11
- GI50 [7]: 6.75
- GI50 [8]: 7.23
- GI50 [9]: 6.26
- GI50 [10]: 6.48
- GI50 [11]: 5.61
- GI50 [12]: 6.59
- GI50 [13]: 6.28
- GI50 [14]: 5.71
- GI50 [15]: 5.82
- GI50 [16]: 6.09
- GI50 [17]: 6.63
- GI50 [18]: 6.89
- GI50 [19]: 5.48
- GI50 [20]: 5.82
- GI50 [21]: 5.53
- GI50 [22]: 6.25
- GI50 [23]: 6.18
- GI50 [24]: 5.21
- GI50 [25]: 5.84
- GI50 [26]: 5.88
- GI50 [27]: 6.52
- GI50 [28]: 5.96
- GI50 [29]: 6.71
- GI50 [30]: 6.89
- GI50 [31]: 6.01
- GI50 [32]: 6.73
- GI50 [33]: 7.13
- GI50 [34]: 6.49
- GI50 [35]: 6.58
- GI50 [36]: 6.62
- GI50 [37]: 6.89
- GI50 [38]: 6.51
- GI50 [39]: 5.87
- GI50 (cell line ZR7530, censored GI50 values): 6.82

Compound: COc1ncc(-c2ccc3nccc(-c4ccnnc4)c3c2)cc1NS(=O)(=O)c1ccc(F)cc1F [GSK2126458A]
- GI50 [1]: 8.22
- GI50 (cell line 600MPE): 8.22
- GI50 [2]: 8.10
- GI50 (cell line AU565): 8.10
- GI50 [40]: 7.80
- GI50 (cell line BT20): 7.80
- GI50 [3]: 8.36
- GI50 [41]: 8.94
- GI50 [4]: 7.32
- GI50 [5]: 6.97
- GI50 [6]: 7.62
- GI50 [7]: 8.13
- GI50 [8]: 9.03
- GI50 [9]: 7.43
- GI50 [10]: 8.30
- GI50 [11]: 7.31
- GI50 [12]: 8.75
- GI50 [13]: 7.48
- GI50 [14]: 7.11
- GI50 [15]: 7.54
- GI50 [16]: 7.57
- GI50 [17]: 7.97
- GI50 [19]: 7.36
- GI50 [20]: 7.93
- GI50 [21]: 8.14
- GI50 [22]: 7.95
- GI50 [42]: 6.49
- GI50 [23]: 8.29
- GI50 [24]: 5.57
- GI50 [25]: 7.46
- GI50 [26]: 6.75
- GI50 [27]: 8.28
- GI50 [28]: 7.47
- GI50 [29]: 8.41
- GI50 [30]: 8.46
- GI50 [31]: 7.64
- GI50 [32]: 7.52
- GI50 [34]: 8.02
- GI50 [35]: 8.45
- GI50 [36]: 8.67
- GI50 [37]: 8.22
- GI50 [38]: 8.31
- GI50 [39]: 8.07

Compound: O=c1cc(-c2ccccc2)oc2cc(O)c(O)c(O)c12 [baicalein]
- variability in cell line response (across the cell line panel): variability in cell line response was minimal

Compound: COc1ccc(C2=N[C@@H](c3ccc(Cl)cc3)[C@@H](c3ccc(Cl)cc3)N2C(=O)N2CCNC(=O)C2)c(OC(C)C)c1 [Nutlin 3a]
- GI50 (cell line 600MPE): 4.32
- GI50 [2]: 4.79
- GI50 (cell line AU565): 4.79
- GI50 [40]: 4.47
- GI50 (cell line BT20): 4.47
- GI50 [3]: 4.39
- GI50 (cell line BT474): 4.39
- GI50 [41]: 5.19
- GI50 (cell line BT483): 5.19
- GI50 (cell line BT549): 4.35
- GI50 (cell line CAMA1): 4.30
- GI50 [6]: 4.66
- GI50 (cell line HCC38): 4.66
- GI50 [7]: 4.73
- GI50 (cell line HCC70): 4.73
- GI50 [8]: 5.02
- GI50 (cell line HCC202): 5.02
- GI50 [9]: 4.67
- GI50 (cell line HCC1143): 4.67
- GI50 [10]: 4.68
- GI50 (cell line HCC1187): 4.68
- GI50 [11]: 4.65
- GI50 (cell line HCC1395): 4.65
- GI50 [12]: 4.39
- GI50 (cell line HCC1419): 4.39
- GI50 [13]: 4.50
- GI50 (cell line HCC1428): 4.50
- GI50 [14]: 4.57
- GI50 (cell line HCC1500): 4.57
- GI50 (cell line HCC1806): 4.29
- GI50 [16]: 4.63
- GI50 (cell line HCC1937): 4.63
- GI50 [17]: 4.76
- GI50 (cell line HCC1954): 4.76
- GI50 [18]: 4.81
- GI50 (cell line HCC2185): 4.81
- GI50 [19]: 4.44
- GI50 (cell line HCC3153): 4.44
- GI50 [20]: 5.35
- GI50 (cell line LY2): 5.35
- GI50 [21]: 5.24
- GI50 (cell line MCF7): 5.24
- GI50 (cell line MDAMB134V): 4.76
- GI50 [22]: 4.76
- GI50 [42]: 4.45
- GI50 (cell line MDAMB157): 4.45
- GI50 (cell line MDAMB175V): 5.08
- GI50 [23]: 5.08
- GI50 (cell line MDAMB231): 4.18
- GI50 (cell line MDAMB361): 4.23
- GI50 (cell line MDAMB415, censored GI50 values): 4.59
- GI50 (cell line MDAMB415): 4.59
- GI50 (cell line MDAMB436): 4.30
- GI50 (cell line MDAMB453): 4.32
- GI50 [28]: 4.44
- GI50 (cell line MDAMB468): 4.44
- GI50 (cell line SKBR3): 4.32
- GI50 [30]: 4.73
- GI50 (cell line SUM52PE): 4.73
- GI50 [31]: 4.56
- GI50 (cell line SUM149PT): 4.56
- GI50 [32]: 4.78
- GI50 (cell line SUM159PT): 4.78
- GI50 [33]: 4.54
- GI50 (cell line SUM185PE): 4.54
- GI50 (cell line SUM225CWN, censored GI50 values): 4.69
- GI50 (cell line SUM225CWN): 4.69
- GI50 [34]: 4.67
- GI50 (cell line SUM1315MO): 4.67
- GI50 [35]: 4.51
- GI50 (cell line T47D): 4.51
- GI50 [36]: 4.45
- GI50 (cell line UACC812): 4.45
- GI50 [37]: 4.69
- GI50 (cell line UACC893): 4.69
- GI50 [38]: 5.69
- GI50 (cell line ZR75B): 5.69
- GI50 [39]: 5.51
- GI50 (cell line ZR751): 5.51
